Results reported in patent US7135466B2 (Kirin Beer Kabushiki Kaisha, priority 1999, dated 2006).
Like-named read-outs stand apart in the source and are kept apart here.

Tests used:
PDGF-Ra = biological target: T1, PDGF-Ra (Homo sapiens, UniProt P16234); assay: Inhibitory activity against PDGF-Ra phosphorylation by PDGF-AA stimulation using G292; format: cell-based; details: for inhibition at 0.1 µM: G292, at 100 nM, read-out: PDGF (E) inhibition (%) at 100 nM; for IC50: > means inhibition at indicated concentration not more than 50%, < and << not less than 50%, read-out: PDGF (E) IC50
T1 construct: host or cells: G-292 human osteosarcoma cells
T1 sequence (P16234 24-1089): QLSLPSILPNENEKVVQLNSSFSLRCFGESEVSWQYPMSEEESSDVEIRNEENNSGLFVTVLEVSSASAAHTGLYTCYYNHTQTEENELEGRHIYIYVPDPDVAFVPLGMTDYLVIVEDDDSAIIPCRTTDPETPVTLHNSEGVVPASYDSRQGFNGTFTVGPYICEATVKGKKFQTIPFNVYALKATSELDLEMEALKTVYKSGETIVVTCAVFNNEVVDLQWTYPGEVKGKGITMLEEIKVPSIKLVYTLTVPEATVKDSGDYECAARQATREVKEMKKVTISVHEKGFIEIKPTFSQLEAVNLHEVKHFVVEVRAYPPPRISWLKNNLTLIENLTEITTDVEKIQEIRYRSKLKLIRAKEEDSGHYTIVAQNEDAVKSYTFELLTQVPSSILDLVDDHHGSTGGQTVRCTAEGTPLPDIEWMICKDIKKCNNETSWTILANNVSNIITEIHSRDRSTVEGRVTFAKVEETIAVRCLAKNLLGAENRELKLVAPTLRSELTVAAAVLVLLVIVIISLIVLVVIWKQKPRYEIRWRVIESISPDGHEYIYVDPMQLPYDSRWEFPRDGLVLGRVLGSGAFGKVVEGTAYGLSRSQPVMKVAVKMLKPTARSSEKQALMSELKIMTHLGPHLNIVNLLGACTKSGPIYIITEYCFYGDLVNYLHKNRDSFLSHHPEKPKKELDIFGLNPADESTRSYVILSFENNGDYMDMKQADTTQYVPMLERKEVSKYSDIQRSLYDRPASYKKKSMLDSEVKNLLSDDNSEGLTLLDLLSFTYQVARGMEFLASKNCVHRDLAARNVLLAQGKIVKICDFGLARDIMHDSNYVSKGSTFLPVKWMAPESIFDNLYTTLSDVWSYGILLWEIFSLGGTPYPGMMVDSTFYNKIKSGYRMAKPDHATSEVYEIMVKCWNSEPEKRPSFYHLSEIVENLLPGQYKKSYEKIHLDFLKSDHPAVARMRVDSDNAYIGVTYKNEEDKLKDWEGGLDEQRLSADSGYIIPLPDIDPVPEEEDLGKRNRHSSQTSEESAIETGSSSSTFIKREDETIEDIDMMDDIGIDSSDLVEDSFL
In short: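 Human osteosarcoma G-292, 0.1% FBS o/n; cpd (DMSO) 1 h 37 °C; PDGF-AA 50 ng/ml 5 min; lyse 20 min RT; PY-20 capture 4 °C o/n; anti-PDGF-Ra + HRP-GAR; OD450.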

c-kit = biological target: T2, c-kit (Homo sapiens, UniProt P10721); assay: Inhibitory activity against c-kit autophosphorylation (MO7e cells, h-SCF); format: cell-based; details: for inhibition at 1 µM: Mo7e, at 1000 nM
T2 construct: MO7e (human megakaryocytic leukemia cell line) which had been arrested for 20 hr; endogenous in cells; host or cells: MO7e human megakaryocytic leukemia cell line
T2 sequence (P10721 26-976): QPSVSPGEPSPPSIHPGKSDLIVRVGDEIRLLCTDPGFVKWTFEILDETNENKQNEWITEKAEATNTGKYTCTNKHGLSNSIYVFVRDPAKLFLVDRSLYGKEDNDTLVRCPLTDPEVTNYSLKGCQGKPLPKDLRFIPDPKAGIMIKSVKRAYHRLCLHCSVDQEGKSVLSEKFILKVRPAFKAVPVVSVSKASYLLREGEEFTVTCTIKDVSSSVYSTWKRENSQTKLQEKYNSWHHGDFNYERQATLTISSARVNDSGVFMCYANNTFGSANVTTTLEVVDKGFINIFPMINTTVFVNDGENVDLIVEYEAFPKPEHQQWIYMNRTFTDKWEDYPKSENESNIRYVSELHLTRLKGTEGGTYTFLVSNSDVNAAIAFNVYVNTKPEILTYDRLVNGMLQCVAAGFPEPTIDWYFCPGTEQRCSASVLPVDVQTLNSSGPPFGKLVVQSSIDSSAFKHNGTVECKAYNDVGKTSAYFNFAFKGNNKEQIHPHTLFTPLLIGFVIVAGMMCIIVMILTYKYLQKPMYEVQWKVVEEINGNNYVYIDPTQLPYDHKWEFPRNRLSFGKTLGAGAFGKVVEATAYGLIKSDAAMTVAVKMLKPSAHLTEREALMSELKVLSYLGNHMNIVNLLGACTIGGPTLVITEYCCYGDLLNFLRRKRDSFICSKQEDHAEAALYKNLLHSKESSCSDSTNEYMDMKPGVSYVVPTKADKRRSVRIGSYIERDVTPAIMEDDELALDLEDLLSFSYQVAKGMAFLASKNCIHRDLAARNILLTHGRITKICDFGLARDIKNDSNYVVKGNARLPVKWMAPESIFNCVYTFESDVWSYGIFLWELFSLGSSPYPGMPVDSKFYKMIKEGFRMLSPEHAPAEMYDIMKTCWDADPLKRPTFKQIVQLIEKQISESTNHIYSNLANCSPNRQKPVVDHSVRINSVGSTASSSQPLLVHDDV
In short: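 MO7e human megakaryocytic leukemia cells, arrested 20 hr, treated with compound 1 hr, then stimulated with 50 ng/ml h-SCF for 5 min and lysed. Lysates captured on immobilized anti-phosphotyrosine antibody, detected with anti-c-kit primary and HRP secondary antibody; absorbance at 450 nm.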

[1] = figure in parentheses in >100( )
[2] = MO7e cells, h-SCF 50 ng/ml, read-out: c-kit IC50
[3] = MO7e cells, 50 ng/ml h-SCF, read-out: c-kit IC50
[4] = figure within parentheses in −( ) or >1000( )
[5] = figure within parentheses in >100( )
[6] = MO7e cells, h-SCF stimulation, read-out: c-kit IC50

Compound	IC50 (PDGF-Ra; Pharmacological Test Example 1) [nM]	IC50 (c-kit; [2]) [nM]	IC50 (PDGF-Ra) [nM]	further results
COc1cc2nccc(Oc3cc(C)c(NC(=O)Oc4c(OC)cccc4OC)cc3C)c2cc1OC [Example 281, 2,6-Dimethoxyphenyl N-{4-[(6,7-dimethoxy-4-quinolyl)oxy]-2,5-dimethylphenyl}carbamate]	> 100	268	–	inhibition at 0.1 µM (PDGF-Ra; [1]): 49%
CCC(C(=O)NC(=S)Nc1ccc(Oc2ccnc3cc(OC)c(OC)cc23)cc1)c1ccccc1 (stereo not drawn) [Example 747, N-{4-[(6,7-Dimethoxy-4-quinolyl)oxy]phenyl}-N′-(2-phenylbutanoyl)thiourea]	–	–	35	IC50 (c-kit; [3]): 759 nM
C#CCC(CC)OC(=O)Nc1ccc(Oc2ccnc3cc(OC)c(OC)cc23)c(C)c1C (stereo not drawn) [Example 410, 1-Ethyl-3-butynyl N-{4-[(6,7-dimethoxy-4-quinolyl)oxy]-2,3-dimethylphenyl}carbamate]	–	–	12	IC50 (c-kit; [3]): 79 nM
COc1cc2nccc(Oc3ccc(NC(=O)Oc4ccc(-c5ccccc5)cc4)c(C)c3C)c2cc1OC [Example 296, 4-Phenylphenyl N-{4-[(6,7-dimethoxy-4-quinolyl)oxy]-2,3-dimethylphenyl}carbamate]	61	109	–	–
COc1cc2ncnc(Oc3ccc(NC(=O)NC4CCN(Cc5ccccc5)CC4)c([N+](=O)[O-])c3)c2cc1OC [Example 606, N-{4-[(6,7-Dimethoxy-4-quinazolinyl)oxy]-2-nitrophenyl}-N′-[4-(N-benzyl)piperidinyl]urea]	–	–	18	IC50 (c-kit; [3]): 263 nM
CCCCCCCCc1ccc(C(=O)NC(=S)Nc2ccc(Oc3ccnc4cc(OC)c(OC)cc34)cc2)cc1 [Example 1128, N-{4-[(6,7-Dimethoxy-4-quinolyl)oxy]phenyl}-N′-(4-octylbenzoyl)thiourea]	–	–	> 100	inhibition at 0.1 µM (PDGF-Ra; [1]): 47%; inhibition at 1 µM (c-kit; figure in parentheses in −( )): 17%
COc1ccc(COC(=O)Nc2ccc(Oc3ncnc4cc(OC)c(OC)cc34)cc2)cc1OC [Example 65, 3,4-Dimethoxybenzyl N-{4-[(6,7-dimethoxy-4-quinazolinyl)oxy]phenyl}carbamate]	< 10	103	–	–
COc1ccccc1COC(=O)N(C)c1ccc(Oc2ncnc3cc(OC)c(OC)cc23)cc1Cl [Example 478, 2-Methoxybenzyl N-{2-chloro-4-[(6,7-dimethoxy-4-quinazolinyl)oxy]phenyl}-N-methylcarbamate]	–	–	17	inhibition at 1 µM (c-kit; [4]): 28%
COc1cc2nccc(Oc3ccc(NC(=O)N[C@@H]4CCN(Cc5ccccc5)C4)cc3)c2cc1OC [Example 564, N-[(3R)-1-Benzyltetrahydro-1H-3-pyrrolyl]-N′-{4-[(6,7-dimethoxy-4-quinolyl)oxy]phenyl}urea]	–	–	39	IC50 (c-kit; [3]): 291 nM
COc1cc2nccc(Oc3ccc(NC(=S)NC(=O)c4ccccc4Cl)c(F)c3)c2cc1OC [Example 905, N-(2-Chlorobenzoyl)-N′-{4-[(6,7-dimethoxy-4-quinolyl)oxy]-2-fluorophenyl}thiourea]	–	–	5	inhibition at 1 µM (c-kit; figure in parentheses in −( )): 40%
COc1cc2nccc(Oc3cc(C)c(NC(=O)OC(C)c4ccc(C)cc4)cc3C)c2cc1OC (stereo not drawn) [Example 134, 1-(4-Methylphenyl)ethyl N-{4-[(6,7-dimethoxy-4-quinolyl)oxy]-2,5-dimethylphenyl}carbamate]	> 100	944	–	inhibition at 0.1 µM (PDGF-Ra; [1]): 49%
COc1cc(Oc2ncnc3cc(OC)c(OC)cc23)ccc1NC(=O)NC1CCN(Cc2ccccc2C)C1 (stereo not drawn) [Example 571, N-{4-[(6,7-Dimethoxy-4-quinazolinyl)oxy]-2-methoxyphenyl}-N′-[1-(2-methylbenzyl)tetrahydro-1H-3-pyrrolyl]urea]	–	–	32	IC50 (c-kit; [3]): 556 nM
COc1cccc(NCCOc2ccc(Oc3ccnc4cc(OC)c(OC)cc34)cc2)c1 [Example 779, N-(2-{4-[(6,7-Dimethoxy-4-quinolyl)oxy]phenoxy}ethyl)-N-(3-methoxyphenyl)amine]	–	–	< 10	IC50 (c-kit; [3]): 107 nM
COc1cc2nccc(Oc3ccc(NC(=O)OCC4CCCCC4)cc3)c2cc1OC [Example 283, Cyclohexylmethyl N-{4-[(6,7-dimethoxy-4-quinolyl)oxy]phenyl}carbamate]	< 10	121	–	–
COc1ccc(OCCCOC(=O)Nc2ccc(Oc3ncnc4cc(OC)c(OC)cc34)cc2)cc1 [Example 45, 3-(4-Methoxyphenoxy)propyl N-{4-[(6,7-dimethoxy-4-quinazolinyl)oxy]phenyl}carbamate]	< 10	91	–	–
COc1cc2ncnc(Oc3ccc(NC(=O)NN4CCCCC4)c([N+](=O)[O-])c3)c2cc1OC [Example 597, N-{4-[(6,7-Dimethoxy-4-quinazolinyl)oxy]-2-nitrophenyl}-N′-(1-piperidinyl)urea]	–	–	> 100	inhibition at 0.1 µM (PDGF-Ra; [5]): 27%; inhibition at 1 µM (c-kit; [4]): 8%

Compound	IC50 (PDGF-Ra; Pharmacological Test Example 1) [nM]	IC50 (c-kit; [2]) [nM]	IC50 (PDGF-Ra) [nM]	further results
COc1cccc(C(C)OC(=O)Nc2ccc(Oc3ncnc4cc(OC)c(OC)cc34)cc2)c1 (stereo not drawn) [Example 55, 1-(3-Methoxyphenyl)ethyl N-{4-[(6,7-dimethoxy-4-quinazolinyl)oxy]phenyl}carbamate]	< 10	288	–	–
COc1cc2nccc(Oc3ccc(NC(=O)NN4CCCCCC4)cc3)c2cc1OC [Example 608, N-{4-[(6,7-Dimethoxy-4-quinolyl)oxy]phenyl}-N′-(1-homopiperidinyl)urea]	–	–	< 10	IC50 (c-kit; [3]): 201 nM
COc1cc2nccc(Oc3ccc(NC(=S)NC(=O)N(CCCl)CCCl)cc3)c2cc1OC [Example 1042, N-{4-[(6,7-Dimethoxy-4-quinolyl)oxy]phenyl}-[{[di(2-chloroethyl)amino]carbonyl}amino]methanethioamide]	–	–	39	IC50 (c-kit; c-kit IC50, MO7e cells, h-SCF stimulation): 107 nM
COc1cc2nccc(Oc3ccc(NC(=S)NC(=O)CCC4CCCC4)cc3Cl)c2cc1OC [Example 1030, N-{3-Chloro-4-[(6,7-dimethoxy-4-quinolyl)oxy]phenyl}-N′-(3-cyclopentylpropanoyl)thiourea]	–	–	14	IC50 (c-kit; [6]): 337 nM
CCCCN(CCCC)CCNC(=O)Nc1cc(C)c(Oc2ccnc3cc(OC)c(OC)cc23)cc1C [Example 683, N-[2-(Dibutylamino)ethyl]-N′-{4-[(6,7-dimethoxy-4-quinolyl)oxy]-2,5-dimethylphenyl}urea]	–	–	> 100	inhibition at 0.1 µM (PDGF-Ra; [5]): 40%; inhibition at 1 µM (c-kit; [4]): 26%
COc1cc2ncnc(Oc3ccc(NC(=O)OCCCOc4ccccc4OC)cc3)c2cc1OC [Example 160, 3-(2-Methoxyphenoxy)propyl N-{4-[(6,7-dimethoxy-4-quinazolinyl)oxy]phenyl}carbamate]	16	52	–	–
COc1cc2nccc(Oc3ccc(NC(=S)NC(=O)COCc4ccccc4)c(F)c3)c2cc1OC [Example 1031, N-[2-(Benzyloxy)acetyl]-N′-{4-[(6,7-dimethoxy-4-quinolyl)oxy]-2-fluorophenyl}thiourea]	–	–	10	IC50 (c-kit; [6]): 254 nM
COc1cc2ncnc(Oc3ccc(NC(=S)NCCN(C)C)cc3)c2cc1OC [Example 529, N-{4-[(6,7-Dimethoxy-4-quinazolinyl)oxy]phenyl}-N′-(2-dimethylaminoethyl) thiourea]	–	–	> 100	inhibition at 0.1 µM (PDGF-Ra; [5]): 38%; inhibition at 1 µM (c-kit; [4]): 8%
COc1cc2ncnc(Oc3ccc(NC(=O)OC4CCCCC4)c(C)c3C)c2cc1OC [Example 391, Cyclohexyl N-{4-[(6,7-dimethoxy-4-quinazolinyl)oxy]-2,3-dimethylphenyl}carbamate]	13	129	–	–
COc1cc2ncnc(Oc3ccc(NC(=O)NN4CCCCC4)cc3)c2cc1OC [Example 603, N-{4-[(6,7-Dimethoxy-4-quinazolinyl)oxy]phenyl}-N′-(1-piperidinyl)urea]	–	–	> 100	inhibition at 0.1 µM (PDGF-Ra; [5]): 42%; IC50 (c-kit; [3]): 864 nM
COc1cc2nccc(Oc3cc(C)c(NC(=O)OCc4ccccn4)cc3C)c2cc1OC [Example 430, 2-Pyridylmethyl N-{4-[(6,7-dimethoxy-4-quinolyl)oxy]-2,5-dimethylphenyl}carbamate]	–	–	76	IC50 (c-kit; [3]): 182 nM
COc1cc2ncnc(Oc3ccc(NC(=O)OCCCSc4ccc(C)cc4)cc3)c2cc1OC [Example 40, 3-[(4-Methylphenyl)sulfanyl)propyl N-{4-[(6,7-dimethoxy-4-quinazolinyl)oxy]phenyl}carbamate]	< 10	55	–	–
COc1cc2nccc(Oc3ccc(NC(=O)OC4CCc5ccccc5C4)c(C)c3C)c2cc1OC (stereo not drawn) [Example 293, 1,2,3,4-Tetrahydro-2-naphthalenyl N-{4-[(6,7-dimethoxy-4-quinolyl)oxy]-2,3-dimethylphenyl}carbamate]	< 10	145	–	–
CCN(CC)C(=O)NC(=S)Nc1ccc(Oc2ccnc3cc(OC)c(OC)cc23)c(Cl)c1 [Example 1048, N-{3-Chloro-4-[(6,7-dimethoxy-4-quinolyl)oxy]phenyl}-{[(diethylamino)carbonyl]amino}methanethioamide]	–	–	< 10	IC50 (c-kit; [6]): 250 nM
COc1cc2nccc(Oc3ccc(NC(=O)OC(C)c4cccc(Br)c4)cc3)c2cc1OC (stereo not drawn) [Example 117, 1-(3-Bromophenyl)ethyl N-{4-[(6,7-dimethoxy-4-quinolyl)oxy]phenyl}carbamate]	26	759	–	–
